This is an account of results in patent US5270190A, “Method for producing (R)-malic acid from maleic acid using microbial maleate hydratase” (priority 1992, dated 1993).

The subject of series [1] is Brevibacterium helvolum ATCC 11822. Nature of the series: Growth in basal medium with additions. It is filed as cell-based. The settings on record: 1% addition to basal medium. The protocol: (§1) In order to obtain a culture containing a maleate hydratase activity by cultivating microorganism capable of producing this enzyme, usual cultivation methods can be used; namely cultivating in a nutrient medium containing organic compounds as a carbon source, organic and/or inorganic compounds as a nitrogen source, and mineral salts, at pH 4 to 10, at 10° to 40° C. It is preferred to add at least one compound selected from the group consisting of maleic acid and citraconic acid since a culture having high maleate hydratase activity can be obtained by the addition of such compound. The concentration of these compounds to be added in a medium is generally from about 0.1 to 3% by weight, preferably from about 0.5 to 2% by weight. The effect of these compounds is shown in Table 1 hereinbelow and Examples 1 and 2.
(§2) *Basal Medium: NH4 Cl 0.1%, KH2 PO4 0.14%, Na2

In series [2] the test system is maleate hydratase. Nature of the series: Induction of maleate hydratase by additions to the basal medium (specific activity of the cell sonicate supernatant). The class given is cell-based, Brevibacterium helvolum ATCC 11822. The settings on record: for Specific Activity (amount of (R)-malic acid formed): crude enzyme reacted with maleate at 30° C. for 60 minutes, pH 7.2. The protocol:
as §1, §2
**Determined by the amount of (R)malic acid formed when reaction mixture
(total volume 2,000 μl, pH 7.2) containing 50 mM TrisHCl buffer (1,700
μl), 100 mM maleate (200 μl), and crude enzyme preparation (cells
sonicate supernatant, 100 μl) was reacted at 30° C. for 60

Series [3] deals with microbial maleate hydratase. It is filed as biochemical.
Series [4] relates to microbial maleate hydratase. Nature of the series: Action and specificity of the enzyme (substrate). The class given is biochemical. From the text:
The enzyme catalyzes a reaction in which maleic acid is hydrated to form (R)-malic acid.

Molecules are shown by their SMILES. Read-outs that look alike come from different tables or passages of the source.

Consider `C/C(=C/C(=O)O)C(=O)O` [Citraconic Acid, citraconic acid], for which the “Growth at 68 Hours O.D. (660 nm)” value in series [1] is 4.1. Besides, the “Specific Activity (amount of (R)-malic acid formed)” value in series [2] (1% addition to basal medium) came out at 3.13. Further, the “Induction Fold” value in series [2] (1% addition to basal medium, relative to no addition (1.0)) was determined as 4.8.
With `O=C(O)CN(CCN(CC(=O)O)CC(=O)O)CC(=O)O` [EDTA], the “inhibition of enzyme activity” value in series [3] is “no inhibition”.
As for `O=C(O)CI` [IAA, iodoacetic acid], in series [3], the “inhibition of enzyme activity” value is 12%.
For `O=C(O)/C=C\C(=O)O` [Maleic Acid, maleic acid], in series [1], the “Growth at 68 Hours O.D. (660 nm)” value came out at 4.5. Also, the “Induction Fold” value in series [2] (1 %) is on record as 3.9. The “Specific Activity (amount of (R)-malic acid formed)” value in series [2] (1% addition to basal medium) is 2.56.
For `CCN1C(=O)C=CC1=O` [NEM, N-ethylmaleimide], the “inhibition of enzyme activity” value in series [3] (inhibitor at 10 mM) turned out to be 33%.
As to `[Na+].[O-][I+3]([O-])([O-])[O-]` [NaIO4, sodium metaperiodate], in series [3] (inhibitor concentration 1 mM), the “inhibition of enzyme activity” value stood at 17%.
For the molecule `O=C(O)c1cc[c]([Hg][Cl])cc1` [PCMB, p-chloromercuribenzoic acid], the “inhibition of enzyme activity” value in series [3] (inhibitor concentration 1 mM) came to 100%.
As to `O=S(=O)(F)Cc1ccccc1` [PMSF, phenylmethylsulfonylfluoride], the “inhibition of enzyme activity” value in series [3] (inhibitor concentration 1 mM) was “no inhibition”.
Regarding `O=C(O)/C=C/C(=O)O` [fumaric acid], the “action of the enzyme on the substance as substrate” value in series [4] was “does not act”.
